For the assay, the system named is NCI-60 cell lines. Format: cell-based, human.

Take AARGLEA: the “Cell Line (NCI-60 cell line the peptide is associated with)” value is “COLO-205-Colon”.

For the substance LLNPARG, the “Cell Line the peptide is associated with (peptide recovered from phage library selection on this NCI-60 cell line)” value is given as “SN12C Renal”.

For the substance RFTRSSG, the “Cell Line with which the peptide (and its tripeptide motif) is associated” value (shortened to “Cell Line with which the peptide”) is listed as “A549-Lung”.

In the case of NEGRLGI, the “Cell Line (NCI-60 cell line the peptide is associated with)” value is reported as “SNB-75 CNS”.

With RAVERVA, the “Cell Line the peptide is associated with (peptide recovered from phage library selection on this NCI-60 cell line)” value was “CAIK-1 Renal”.

In the case of LGGLGIH, the “Cell Line (NCI-60 cell line the peptide is associated with)” value is “SF-295 CNS”.

As to GSGRALA, the “Cell Line (NCI-60 cell line the peptide and its motif are associated with)” value is reported as “SK-MEL-2 Melanoma”.

In the case of LRRSSFS, the “Cell Line with which the peptide” value is listed as “K-562-Leukemia”.

Regarding RVEAAVP, the “Cell Line (NCI-60 cell line the peptide and its motif are associated with)” value is “SK-OV-3-3 Ovarian”.

Turning to GRVTVAV, the “Cell Line with which the peptide” value was “A549-Lung”.

For GAGLSTS, the “Cell Line with which the peptide” value is given as “H322-Lung”.

Turning to RASYYGV, the “Cell Line the peptide is associated with (peptide recovered from phage library selection on this NCI-60 cell line)” value is “RXF393 Renal”.

As for AALLRAV, the “Cell Line (NCI-60 cell line the peptide and its motif are associated with)” value is on record as “OVCAR-4 Ovarian”.

As for FAGAGVR, the “Cell Line (NCI-60 cell line the peptide and its motif are associated with)” value is “SK-OV-3-3 Ovarian”.

Regarding PLRSFDS, the “Cell Line with which the peptide” value is on record as “H23-Lung”.

With GRLSFGV, the “Cell Line the peptide is associated with (peptide recovered from phage library selection on this NCI-60 cell line)” value is given as “ACHN Renal”.

GGGRRAL: the “Cell Line (NCI-60 cell line the peptide and its motif are associated with)” value was “PC3 Prostate”.

On to ACGSGLD, for which the “Cell Line (NCI-60 cell line the peptide and its motif are associated with)” value is “SK-MEL-5 Melanoma”.

Turning to RFYHLRS, the “Cell Line with which the peptide” value was “A549-Lung”.

IGSGVGV: the “Cell Line the peptide is associated with (peptide recovered from phage library selection on this NCI-60 cell line)” value is recorded as “NCI/ADR-RES Breast”.

Consider LLSFLGR, for which the “Cell Line with which the peptide” value is “Molt-4-Leukemia”.

On to LLRRGIG, for which the “Cell Line (NCI-60 cell line the peptide and its motif are associated with)” value is listed as “SK-MEL-5 Melanoma”.

As for GDCGLVG, the “Cell Line (NCI-60 cell line the peptide and its motif are associated with)” value is “PC3 Prostate”.

Consider RGSLLWA, for which the “Cell Line (NCI-60 cell line the peptide and its motif are associated with)” value was “UACC 257 Melanoma”.

Regarding GVSGLSR, the “Cell Line (NCI-60 cell line the peptide and its motif are associated with)” value is recorded as “DU-145 Prostate”.

Regarding GCDGGSA, the “Cell Line with which the peptide” value is listed as “H23-Lung”.

As for RIGAVWY, the “Cell Line (NCI-60 cell line the peptide is associated with)” value is listed as “HT-29 Colon”.

As for SRHGLVR, the “Cell Line (NCI-60 cell line the peptide is associated with)” value is listed as “HCT-15 Colon”.

For the substance GLVRCVL, the “Cell Line (NCI-60 cell line the peptide is associated with)” value is on record as “COLO-205-Colon”.

With GGRRGTS, the “Cell Line the peptide is associated with (peptide recovered from phage library selection on this NCI-60 cell line)” value is listed as “MCF-7 Breast”.

For the substance LRPGLRS, the “Cell Line the peptide is associated with (peptide recovered from phage library selection on this NCI-60 cell line)” value is “CAIK-1 Renal”.

For the substance FRVSLGY, the “Cell Line the peptide is associated with (peptide recovered from phage library selection on this NCI-60 cell line)” value is given as “ACHN Renal”.

Regarding NYMGPSA, the “Cell Line with which the peptide” value was “A549-Lung”.

Take RDGVRVG: the “Cell Line (NCI-60 cell line the peptide is associated with)” value is “LOX-IMVI Melanoma”.

As to ARVSGRV, the “Cell Line with which the peptide” value is given as “H23-Lung”.

Take RGGSPPV: the “Cell Line the peptide is associated with (peptide recovered from phage library selection on this NCI-60 cell line)” value is listed as “RXF393 Renal”.

Turning to SLGLGGL, the “Cell Line (NCI-60 cell line the peptide and its motif are associated with)” value was “OVCAR-5 Ovarian”.

For TIPAGGG, the “Cell Line the peptide is associated with (peptide recovered from phage library selection on this NCI-60 cell line)” value is “MDA-MB-231 Breast”.

In the case of RMLVSSF, the “Cell Line (NCI-60 cell line the peptide and its motif are associated with)” value is given as “UACC 257 Melanoma”.

Turning to NEFLGRL, the “Cell Line (NCI-60 cell line the peptide is associated with)” value is reported as “HCT-116 Colon”.

For the substance ASLHHRR, the “Cell Line (NCI-60 cell line the peptide is associated with)” value is listed as “SW620-Colon”.

As to GLRLGVT, the “Cell Line (NCI-60 cell line the peptide is associated with)” value is “HT-29 Colon”.

Take QVAGRER: the “Cell Line with which the peptide” value is “CCRF-CEM Leukemia”.

SPGVSGR: the “Cell Line (NCI-60 cell line the peptide is associated with)” value is “SW620-Colon”.

For the substance GSGRQLP, the “Cell Line the peptide is associated with (peptide recovered from phage library selection on this NCI-60 cell line)” value is “BT-549 Breast”.

(Values after patent US7781565B2 (priority 2006, dated 2010).)
